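Values below derive from 48-hour exposures of cells grown in 96-well plates, with endpoints linearly interpolated between the two concentrations bracketing the appropriate inhibition level. GI50 is the concentration that inhibits growth by half. At the TGI there is no net growth.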

These results are taken from PubChem BioAssay (NCI).

Test systems include ACHN renal; CCRF-CEM leukemia; DU-145 prostate; HCT-116 colon; HOP-62 NSCLC; HS 578T breast; NCI-H226 lung; OVCAR-5 ovarian; OVCAR-8 ovarian; SN12C renal.
Experiment in all cases: NCI anticancer screen, dose series, 48 h

As for `C[n+]1ccccc1/C1=c2\cc/c([nH]2)=C(\c2cccc[n+]2C)C2=N/C(=C(/c3cccc[n+]3C)C3C=CC(N3)/C(c3cccc[n+]3C)=C3/C=CC1=N3)C=C2`, the TGI with ACHN renal, in the test on CCRF-CEM leukemia, with DU-145 prostate, in the test on HCT-116 colon, in the test on HOP-62 NSCLC and in the test on HS 578T breast was above 100 µM throughout. Moreover, the TGI in the test on NCI-H226 lung, in the test with OVCAR-5 ovarian, in the test with OVCAR-8 ovarian and in the test with SN12C renal was above 100 µM throughout.
As to `CN(C)c1ccc(/C=C(\NC(=O)c2ccccc2)C(=O)NC(Cc2c[nH]c3ccccc23)C(=O)O)cc1` (stereo not given), the TGI in the test with ACHN renal, in the test with CCRF-CEM leukemia, in the test on DU-145 prostate, with HCT-116 colon, with HOP-62 NSCLC and with HS 578T breast was above 100 µM throughout. For the same compound, the TGI with NCI-H226 lung, with OVCAR-5 ovarian, in the test on OVCAR-8 ovarian and in the test with SN12C renal was above 100 µM each time.
Consider `O=C1NC(=Nc2ccccc2)C(=Nc2ccccc2)N1c1ccccc1`, for which the TGI was 30.6 µM in the test on ACHN renal; 76.3 µM with CCRF-CEM leukemia; 25.2 µM in the test with DU-145 prostate; 32.3 µM in the test on HCT-116 colon; 32.5 µM in the test with HOP-62 NSCLC; 42.9 µM with HS 578T breast. Further, the TGI stood at 32 µM in the test with NCI-H226 lung, 32.7 µM in the test with OVCAR-5 ovarian, 29.4 µM with OVCAR-8 ovarian and 30.5 µM in the test on SN12C renal.
As for `CCC(=O)Nc1ccc(NCC(=O)Nc2ccc(OC)cc2)cc1`, the TGI in the test on ACHN renal is above 100 µM; in the test with CCRF-CEM leukemia, above 100 µM; in the test with DU-145 prostate, above 100 µM; with HCT-116 colon it was 80.3 µM; in the test with HOP-62 NSCLC, 11.6 µM; in the test with HS 578T breast, above 100 µM. Besides, the TGI in the test on NCI-H226 lung was 37.7 µM; in the test with OVCAR-5 ovarian, 37.2 µM; in the test with OVCAR-8 ovarian, 42.8 µM; in the test on SN12C renal it was 37.5 µM.
Regarding `O=[N+]([O-])C(C(Cl)=C(Cl)Cl)=C(n1cncn1)n1cncn1`, the TGI in the test with ACHN renal is 37.5 µM; in the test with CCRF-CEM leukemia it was 22 µM; in the test on DU-145 prostate, 31.6 µM; in the test with HCT-116 colon it was 31.9 µM; in the test with HOP-62 NSCLC, above 100 µM; with HS 578T breast it was above 64.1 µM. Moreover, the TGI in the test with NCI-H226 lung is above 100 µM; with OVCAR-5 ovarian, 22.9 µM; with OVCAR-8 ovarian, 44.2 µM; with SN12C renal it was 26.9 µM.
`O=C(C1OC1c1cccc([N+](=O)[O-])c1)C12CC3CC(CC(C3)C1)C2` (stereo not given): the TGI in the test with ACHN renal was determined as 23 µM; in the test on CCRF-CEM leukemia, 13.1 µM; in the test with DU-145 prostate it was 26.8 µM; in the test on HCT-116 colon, 4.69 µM; with HOP-62 NSCLC, 24.3 µM; in the test on HS 578T breast it was 14.3 µM. The TGI with NCI-H226 lung is 25.9 µM; in the test with OVCAR-5 ovarian, 18.9 µM; with OVCAR-8 ovarian, 5.92 µM; with SN12C renal, 13.2 µM.
On to `CC(C)=C[C@@H]1O[C@H](O)[C@@H]([C@H]2CC[C@@]3(C)[C@@H]4CC[C@H]5C(C)(C)C(=O)CC[C@@]56C[C@@]46CC[C@]23C)[C@@H]1O`, for which the TGI with ACHN renal is 32 µM; with CCRF-CEM leukemia it was 24.1 µM; with DU-145 prostate it was 29.6 µM; in the test on HCT-116 colon, 28.5 µM; with HOP-62 NSCLC it was 62.2 µM; in the test on HS 578T breast it was 48.4 µM. Further, the TGI in the test on NCI-H226 lung was 24.6 µM; with OVCAR-5 ovarian it was 57.8 µM; in the test with OVCAR-8 ovarian it was 30.4 µM; in the test with SN12C renal it was 38.2 µM.
In the case of `O=C(NC1(C(=O)O)CCCC1)c1ccccc1`, the TGI in the test with ACHN renal, in the test with CCRF-CEM leukemia, in the test on DU-145 prostate, with HCT-116 colon, in the test with HOP-62 NSCLC and in the test on HS 578T breast was above 100 µM in each case. Further, the TGI in the test with NCI-H226 lung, in the test on OVCAR-5 ovarian, in the test on OVCAR-8 ovarian and in the test on SN12C renal was above 100 µM throughout.
In the case of `NC(N)=N/N=C/c1c(-c2cc([N+](=O)[O-])c(Cl)cc2Cl)nc2n1CCS2`, the TGI in the test on ACHN renal is above 100 µM; with CCRF-CEM leukemia, above 100 µM; with DU-145 prostate it was 87.2 µM; with HCT-116 colon, above 100 µM; in the test on HOP-62 NSCLC, above 100 µM; in the test with HS 578T breast, above 100 µM. For the same compound, the TGI in the test on NCI-H226 lung was 92.5 µM; with OVCAR-5 ovarian it was above 100 µM; in the test on OVCAR-8 ovarian, above 100 µM; in the test on SN12C renal, above 100 µM.
As to `Cc1cn(C2OC(CO)C(O)C2F)c(=O)[nH]c1=O` (stereo not given), the TGI in the test on ACHN renal, with CCRF-CEM leukemia, in the test on DU-145 prostate, in the test on HCT-116 colon, in the test on HOP-62 NSCLC and with HS 578T breast was above 100 µM throughout. Further, the TGI in the test on NCI-H226 lung, in the test with OVCAR-5 ovarian, in the test on OVCAR-8 ovarian and in the test with SN12C renal was above 100 µM throughout.
Take `COc1ccccc1C1C(C#N)=C(N)Oc2cc(O)ccc21` (stereo not given): the GI50 with ACHN renal was 22.3 µM; in the test with CCRF-CEM leukemia it was 12 µM; in the test with DU-145 prostate, 26 µM; in the test on HCT-116 colon it was 12.5 µM; in the test with HOP-62 NSCLC, 15.8 µM; in the test with HS 578T breast, 34.1 µM. Also, the GI50 with NCI-H226 lung is 13.7 µM; with OVCAR-5 ovarian, 29.2 µM; in the test with OVCAR-8 ovarian it was 35.2 µM; with SN12C renal it was 11.6 µM. Moreover, the TGI in the test with ACHN renal was 84 µM; with CCRF-CEM leukemia, 29.1 µM; in the test on DU-145 prostate, 94.1 µM; in the test on HCT-116 colon, 26.4 µM; with HOP-62 NSCLC, 60.2 µM; in the test with HS 578T breast, above 100 µM. The TGI was 35 µM in the test on NCI-H226 lung, above 100 µM in the test with OVCAR-5 ovarian, above 100 µM with OVCAR-8 ovarian and 31.1 µM in the test with SN12C renal.
As to `N#Cc1c(-c2ccccc2)cc(Nc2ccc(Cl)cc2)n2c1nc1ccccc12`, the TGI was above 100 µM in the test on ACHN renal; above 94.7 µM with CCRF-CEM leukemia; above 100 µM in the test with DU-145 prostate; above 31.7 µM in the test with HCT-116 colon; above 58.2 µM in the test on HOP-62 NSCLC; 20.2 µM in the test with HS 578T breast. Further, the TGI in the test on NCI-H226 lung was above 100 µM; with OVCAR-5 ovarian, above 50.9 µM; in the test on OVCAR-8 ovarian it was above 57 µM; with SN12C renal it was above 32.2 µM.
For `CN(C)N=Nc1ccc2[nH]c(=O)[nH]c2c1`, the TGI with ACHN renal, with CCRF-CEM leukemia, with DU-145 prostate, in the test with HCT-116 colon, in the test with HOP-62 NSCLC and in the test on HS 578T breast was above 100 µM each time. Moreover, the TGI in the test with NCI-H226 lung, in the test with OVCAR-5 ovarian, with OVCAR-8 ovarian and in the test on SN12C renal was above 100 µM each time.
For the compound `O=c1c2c3c(sc2nc2n1N=CN(c1ccc(F)cc1)C2)CCCC3`, the TGI in the test on ACHN renal, in the test on CCRF-CEM leukemia, with DU-145 prostate, in the test with HCT-116 colon, in the test on HOP-62 NSCLC and in the test on HS 578T breast was above 100 µM each time. Besides, the TGI in the test on NCI-H226 lung, in the test with OVCAR-5 ovarian, in the test on OVCAR-8 ovarian and with SN12C renal was above 100 µM each time.
Consider `Nc1c2cc3ccc2nc2ccc(cc12)OCCOCCOCCOCCOCCOCCO3`, for which the TGI with ACHN renal, in the test on CCRF-CEM leukemia, in the test with DU-145 prostate, with HCT-116 colon, with HOP-62 NSCLC and in the test with HS 578T breast was above 10 µM throughout. The TGI in the test with NCI-H226 lung, in the test on OVCAR-5 ovarian, with OVCAR-8 ovarian and in the test on SN12C renal was above 10 µM in each case.
Turning to `C=CCn1c(-c2ccc(Cl)cc2)csc1=Nc1ccccc1OC`, the TGI in the test with ACHN renal, in the test with CCRF-CEM leukemia, in the test on DU-145 prostate, in the test with HCT-116 colon, with HOP-62 NSCLC and with HS 578T breast was above 100 µM throughout. For the same compound, the TGI with NCI-H226 lung, in the test with OVCAR-5 ovarian, in the test on OVCAR-8 ovarian and with SN12C renal was above 100 µM each time.
Regarding `CCNC(=S)NNC(=O)CSc1nc2ccc(I)cc2c(=O)n1Cc1ccccc1`, the TGI in the test with ACHN renal was above 24.4 µM; in the test with CCRF-CEM leukemia, above 100 µM; in the test on DU-145 prostate, above 100 µM; with HCT-116 colon, above 77.1 µM; with HOP-62 NSCLC it was above 100 µM; in the test on HS 578T breast it was above 100 µM. The TGI with NCI-H226 lung was above 95.5 µM; in the test with OVCAR-5 ovarian, above 100 µM; in the test with OVCAR-8 ovarian it was above 70.4 µM; in the test on SN12C renal, above 100 µM.
As to `CCN(CC)CCN1C(=O)C(=O)N(c2cccc3ccccc23)C1=O`, the TGI in the test with ACHN renal, in the test with CCRF-CEM leukemia, in the test on DU-145 prostate, in the test with HCT-116 colon, in the test with HOP-62 NSCLC and in the test with HS 578T breast was above 10 µM in each case. Further, the TGI with NCI-H226 lung, in the test on OVCAR-5 ovarian, with OVCAR-8 ovarian and with SN12C renal was above 10 µM in each case.
Regarding `COc1ccc(/C=C/C(=O)Oc2ccccc2OC)cc1`, the TGI with ACHN renal is above 59.4 µM; in the test with CCRF-CEM leukemia it was 10.5 µM; with DU-145 prostate, above 100 µM; with HCT-116 colon it was 9.55 µM; with HOP-62 NSCLC, above 62.4 µM; with HS 578T breast it was above 89.6 µM. Also, the TGI was above 100 µM in the test with NCI-H226 lung, 98.2 µM with OVCAR-5 ovarian, above 71.9 µM in the test on OVCAR-8 ovarian and 58.2 µM in the test on SN12C renal.
In the case of `CC(=O)NC1(C)C(C)C2CC1C(C)C2(C)C` (stereo not given), the TGI in the test on ACHN renal, in the test with CCRF-CEM leukemia, in the test on DU-145 prostate, in the test on HCT-116 colon, with HOP-62 NSCLC and in the test with HS 578T breast was above 100 µM in each case. In addition, the TGI in the test with NCI-H226 lung, in the test with OVCAR-5 ovarian, in the test with OVCAR-8 ovarian and in the test with SN12C renal was above 100 µM in each case.
